Converted amounts (≈) assume the structure as drawn.
Assays:
Format in all cases: functional
Staphylococcus aureus [1] = experiment: Antibacterial activity against Staphylococcus aureus ATCC 25923 assessed as inhibition of bacterial growth by standard broth microdilution susceptibility method
Staphylococcus aureus [2] = experiment: Antibacterial activity against methicillin-resistant Staphylococcus aureus ATCC 43300 assessed as inhibition of bacterial growth by standard broth microdilution susceptibility method
Staphylococcus aureus [3] = experiment: Antibacterial activity against vancomycin-intermediate Staphylococcus aureus ATCC NRS1 assessed as inhibition of bacterial growth by standard broth microdilution susceptibility method
Staphylococcus aureus [4] = experiment: Antibacterial activity against heterogenous vancomycin-intermediate Staphylococcus aureus ATCC NRS24 assessed as inhibition of bacterial growth by standard broth microdilution susceptibility method
Enterococcus faecium [5] = experiment: Antibacterial activity against VanA-resistant Enterococcus faecium MMX0485 assessed as inhibition of bacterial growth by standard broth microdilution susceptibility method
Enterococcus faecalis [6] = experiment: Antibacterial activity against VanB-resistant Enterococcus faecalis ATCC 51299 assessed as inhibition of bacterial growth by standard broth microdilution susceptibility method
Enterococcus gallinarum [7] = experiment: Antibacterial activity against VanC-resistant Enterococcus gallinarum ATCC 700221 assessed as inhibition of bacterial growth by standard broth microdilution susceptibility method
Streptococcus pneumoniae [8] = experiment: Antibacterial activity against […] assessed as inhibition of bacterial growth by standard broth microdilution susceptibility method
Clostridioides difficile [9] = experiment: Antibacterial activity against Clostridium difficile ATCC 43255 assessed as inhibition of bacterial growth by standard broth microdilution susceptibility method
Moraxella catarrhalis = experiment: Antibacterial activity against Moraxella catarrhalis ATCC 8193 assessed as inhibition of bacterial growth by standard broth microdilution susceptibility method
Streptococcus pneumoniae [10] = experiment: Potency index, ratio of vancomycin MIC to test compound MIC for antibacterial activity against […] assessed as inhibition of bacterial growth by standard broth microdilution susceptibility method
Clostridioides difficile [11] = experiment: Potency index, ratio of vancomycin MIC to test compound MIC for antibacterial activity against Clostridium difficile ATCC 43255 assessed as inhibition of bacterial growth by standard broth microdilution susceptibility method
Enterococcus faecalis [12] = experiment: Antibiofilm activity against VanB-resistant Enterococcus faecalis ATCC 51299 assessed as inhibition of biofilm formation in BHIG medium incubated for 24 hrs by resazurin assay
Enterococcus faecalis [13] = experiment: Antibiofilm activity against VanB-resistant Enterococcus faecalis ATCC 51299 assessed as inhibition of biofilm formation by measuring decrease in RFU in BHIG medium incubated for 24 hrs by resazurin assay
Enterococcus faecalis [14] = experiment: Antibacterial activity against VanB-resistant Enterococcus faecalis ATCC 51299 assessed as inhibition of colony formation in BHIG medium incubated for 24 hrs by resazurin assay
Enterococcus faecalis [15] = experiment: Antibacterial activity against VanB-resistant Enterococcus faecalis ATCC 51299 assessed as inhibition of bacterial growth in BHIG medium incubated for 24 hrs by resazurin assay
Enterococcus faecalis [16] = experiment: Antibiofilm activity against VanB-resistant Enterococcus faecalis ATCC 51299 assessed as inhibition of biofilm formation in BHIG medium incubated for 24 hrs by resazurin assay relative to vancomycin
Enterococcus faecium [17] = experiment: Potency index, ratio of vancomycin MIC to test compound MIC for antibacterial activity against VanA-resistant Enterococcus faecium MMX0485 assessed as inhibition of bacterial growth by standard broth microdilution susceptibility method
Enterococcus faecalis [18] = experiment: Potency index, ratio of vancomycin MIC to test compound MIC for antibacterial activity against VanB-resistant Enterococcus faecalis ATCC 51299 assessed as inhibition of bacterial growth by standard broth microdilution susceptibility method
Enterococcus gallinarum [19] = experiment: Potency index, ratio of vancomycin MIC to test compound MIC for antibacterial activity against VanC-resistant Enterococcus gallinarum ATCC 700221 assessed as inhibition of bacterial growth by standard broth microdilution susceptibility method
Staphylococcus aureus [20] = experiment: Potency index, ratio of vancomycin MIC to test compound MIC for antibacterial activity against vancomycin-intermediate Staphylococcus aureus ATCC NRS1 assessed as inhibition of bacterial growth by standard broth microdilution susceptibility method
Staphylococcus aureus [21] = experiment: Potency index, ratio of vancomycin MIC to test compound MIC for antibacterial activity against heterogenous vancomycin-intermediate Staphylococcus aureus ATCC NRS24 assessed as inhibition of bacterial growth by standard broth microdilution susceptibility method

## CN[C@H](CC(C)C)C(=O)N[C@H]1C(=O)N[C@@H](CC(N)=O)C(=O)N[C@H]2C(=O)N[C@H]3C(=O)N[C@H](C(=O)N[C@H](C(=O)NCCCCCS)c4cc(O)cc(O)c4-c4cc3ccc4O)[C@H](O)c3ccc(c(Cl)c3)Oc3cc2cc(c3O[C@@H]2O[C@H](CO)[C@@H](O)[C@H](O)[C@H]2O[C@H]2C[C@](C)(N)[C@H](O)[C@H](C)O2)Oc2ccc(cc2Cl)[C@H]1O
Staphylococcus aureus [1]
  MIC: 8 µg/mL (≈ 5.16 µM)
Staphylococcus aureus [2]
  MIC: 8 µg/mL (≈ 5.16 µM)
Staphylococcus aureus [3]
  MIC: 2 µg/mL (≈ 1.29 µM)
Staphylococcus aureus [4]
  MIC: > 32 µg/mL
Enterococcus faecium [5]
  MIC: 1 µg/mL (≈ 0.645 µM)
Enterococcus faecalis [6]
  MIC: 1 µg/mL (≈ 0.645 µM)
Enterococcus gallinarum [7]
  MIC: 0.5 µg/mL (≈ 0.322 µM)
Streptococcus pneumoniae [8]
  MIC: ≤ 0.03 µg/mL
Clostridioides difficile [9]
  MIC: 0.06 µg/mL (≈ 0.0387 µM)
Moraxella catarrhalis
  MIC: 4 µg/mL (≈ 2.58 µM)
Streptococcus pneumoniae [10]
  Ratio: 16
Clostridioides difficile [11]
  Ratio: 16
Enterococcus faecalis [12]
  MBIC: 32 µg/mL
Enterococcus faecalis [13]
  inhibition (INH): 99%
Enterococcus faecalis [14]
  Activity: 32 µg/mL
Enterococcus faecalis [15]
  inhibition (INH): 100%

## CN[C@H](CC(C)C)C(=O)N[C@H]1C(=O)N[C@@H](CC(N)=O)C(=O)N[C@H]2C(=O)N[C@H]3C(=O)N[C@H](C(=O)N[C@H](C(=O)NCCS)c4cc(O)cc(O)c4-c4cc3ccc4O)[C@H](O)c3ccc(c(Cl)c3)Oc3cc2cc(c3O[C@@H]2O[C@H](CO)[C@@H](O)[C@H](O)[C@H]2O[C@H]2C[C@](C)(N)[C@H](O)[C@H](C)O2)Oc2ccc(cc2Cl)[C@H]1O
Staphylococcus aureus [1]
  MIC: 4 µg/mL (≈ 2.65 µM)
Staphylococcus aureus [2]
  MIC: 4 µg/mL (≈ 2.65 µM)
Enterococcus faecalis [6]
  MIC: 2 µg/mL (≈ 1.33 µM)
Enterococcus gallinarum [7]
  MIC: 2 µg/mL (≈ 1.33 µM)
Enterococcus faecalis [12]
  MBIC: 4 µg/mL
Enterococcus faecalis [13]
  inhibition (INH): 99%
Enterococcus faecalis [14]
  Activity: 4 µg/mL
Enterococcus faecalis [15]
  inhibition (INH): 100%
Enterococcus faecalis [16]
  Ratio: 16

## CN[C@H](CC(C)C)C(=O)N[C@H]1C(=O)N[C@@H](CC(N)=O)C(=O)N[C@H]2C(=O)N[C@H]3C(=O)N[C@H](C(=O)N[C@H](C(=O)NCCSSCCCCC[N+](C)(C)C)c4cc(O)cc(O)c4-c4cc3ccc4O)[C@H](O)c3ccc(c(Cl)c3)Oc3cc2cc(c3O[C@@H]2O[C@H](CO)[C@@H](O)[C@H](O)[C@H]2O[C@H]2C[C@](C)(N)[C@H](O)[C@H](C)O2)Oc2ccc(cc2Cl)[C@H]1O
Staphylococcus aureus [1]
  MIC: 1 µg/mL
Staphylococcus aureus [2]
  MIC: 0.5 µg/mL
Staphylococcus aureus [3]
  MIC: 1 µg/mL
Staphylococcus aureus [4]
  MIC: > 32 µg/mL
Enterococcus faecium [5]
  MIC: 16 µg/mL
Enterococcus faecalis [6]
  MIC: 8 µg/mL
Enterococcus gallinarum [7]
  MIC: 4 µg/mL
Streptococcus pneumoniae [8]
  MIC: 0.06 µg/mL
Clostridioides difficile [9]
  MIC: ≤ 0.015 µg/mL
Moraxella catarrhalis
  MIC: 2 µg/mL
Enterococcus faecium [17]
  Ratio: 8
Enterococcus faecalis [18]
  Ratio: 8
Enterococcus gallinarum [19]
  Ratio: 8
Enterococcus faecalis [12]
  MBIC: 16 µg/mL
Enterococcus faecalis [13]
  inhibition (INH): 87%
Enterococcus faecalis [14]
  Activity: 16 µg/mL
Enterococcus faecalis [15]
  inhibition (INH): 97%

## CN[C@H](CC(C)C)C(=O)N[C@H]1C(=O)N[C@@H](CC(N)=O)C(=O)N[C@H]2C(=O)N[C@H]3C(=O)N[C@H](C(=O)N[C@H](C(=O)NCCCCCNC(=O)CCCCC4CCSS4)c4cc(O)cc(O)c4-c4cc3ccc4O)[C@H](O)c3ccc(c(Cl)c3)Oc3cc2cc(c3O[C@@H]2O[C@H](CO)[C@@H](O)[C@H](O)[C@H]2O[C@H]2C[C@](C)(N)[C@H](O)[C@H](C)O2)Oc2ccc(cc2Cl)[C@H]1O (stereo not given in full)
Staphylococcus aureus [1]
  MIC: 2 µg/mL (≈ 1.16 µM)
Staphylococcus aureus [2]
  MIC: 2 µg/mL (≈ 1.16 µM)
Staphylococcus aureus [3]
  MIC: 1 µg/mL (≈ 0.581 µM)
Staphylococcus aureus [4]
  MIC: 32 µg/mL (≈ 18.6 µM)
Enterococcus faecium [5]
  MIC: > 32 µg/mL
Enterococcus faecalis [6]
  MIC: 4 µg/mL (≈ 2.32 µM)
Enterococcus gallinarum [7]
  MIC: 8 µg/mL (≈ 4.65 µM)
Streptococcus pneumoniae [8]
  MIC: 0.06 µg/mL (≈ 0.0348 µM)
Clostridioides difficile [9]
  MIC: 0.06 µg/mL (≈ 0.0348 µM)
Moraxella catarrhalis
  MIC: 4 µg/mL (≈ 2.32 µM)
Staphylococcus aureus [20]
  Ratio: 4
Staphylococcus aureus [21]
  Ratio: 4
Streptococcus pneumoniae [10]
  Ratio: 4
Clostridioides difficile [11]
  Ratio: 4
Enterococcus faecalis [12]
  MBIC: 8 µg/mL
Enterococcus faecalis [13]
  inhibition (INH): 100%
Enterococcus faecalis [14]
  Activity: 8 µg/mL
Enterococcus faecalis [15]
  inhibition (INH): 100%
